These are literature values, as cited in patent publication US6465436B2, “Method for treating alcohol intoxication and alcohol abuse” (McLean Hospital, priority 2000, dated 2002).

The subject of data set [1] is Syrian Golden hamsters.
For data set [2] the following is noted: in vivo.
For data set [3], the target named is T1, human ALDH-1 (Homo sapiens, UniProt P05091).
T1 sequence (P05091 18-517): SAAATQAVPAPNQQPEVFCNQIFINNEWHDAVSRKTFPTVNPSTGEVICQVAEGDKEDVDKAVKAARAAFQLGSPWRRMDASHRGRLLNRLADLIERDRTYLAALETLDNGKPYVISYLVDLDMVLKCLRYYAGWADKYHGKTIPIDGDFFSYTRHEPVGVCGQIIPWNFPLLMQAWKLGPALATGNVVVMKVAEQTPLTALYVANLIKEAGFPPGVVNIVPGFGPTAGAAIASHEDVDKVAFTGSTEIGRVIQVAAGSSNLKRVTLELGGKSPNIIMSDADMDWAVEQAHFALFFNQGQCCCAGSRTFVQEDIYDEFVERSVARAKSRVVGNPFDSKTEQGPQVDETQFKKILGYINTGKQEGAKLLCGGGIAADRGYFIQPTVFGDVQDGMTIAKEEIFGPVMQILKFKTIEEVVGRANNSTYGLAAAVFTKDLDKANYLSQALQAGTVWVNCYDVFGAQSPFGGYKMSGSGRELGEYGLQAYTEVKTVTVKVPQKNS

For data set [4] the following is noted: for alcohol consumption suppressing activity of herbal medicines derived from Pueraria lobata (fractionation studies): U.S. Pat. No. 5,783,189.
Data set [5] deals with ALDH.

`O=c1c(-c2ccc(O)cc2)coc2cc(O)ccc12` [daidzein]: in data set [1], the alcohol intake result is “suppressed alcohol intake”. In data set [2], the blood alcohol levels result is on record as “decreases blood alcohol levels” and the “sleep time induced by alcohol” value is “shortens sleep time”. Also, the “human ALDH-1 inhibition” value in data set [3] is “potent human ALDH-1 inhibitors”. In addition, the “alcohol consumption suppressing activity of herbal medicines derived from Pueraria lobata (fractionation studies)” value in data set [4] is on record as “primarily responsible for the alcohol consumption suppressing activity”.
Consider `O=c1c(-c2ccc(O)cc2)coc2cc(O[C@@H]3O[C@H](CO)[C@@H](O)[C@H](O)[C@H]3O)ccc12` [daidzin], for which, in data set [1], the alcohol intake result is “suppressed alcohol intake”. The “human ALDH-1 inhibition” value in data set [3] was “potent human ALDH-1 inhibitors”. The “alcohol consumption suppressing activity of herbal medicines derived from Pueraria lobata (fractionation studies)” value in data set [4] was “primarily responsible for the alcohol consumption suppressing activity”.
For the molecule `COc1cc(-c2coc3c([C@@H]4O[C@H](CO)[C@@H](O)[C@H](O)[C@H]4O)c(O)ccc3c2=O)ccc1O` [3′-methoxypuerarin], the “alcohol consumption suppressing activity of herbal medicines derived from Pueraria lobata (fractionation studies)” value in data set [4] is on record as “primarily responsible for the alcohol consumption suppressing activity”.
In the case of `O=c1c(-c2ccc(O)cc2)coc2c([C@@H]3O[C@H](CO[C@@H]4OC[C@](O)(CO)[C@H]4O)[C@@H](O)[C@H](O)[C@H]3O)c(O)ccc12` [mirificin], in data set [4], the “alcohol consumption suppressing activity of herbal medicines derived from Pueraria lobata (fractionation studies)” value was “primarily responsible for the alcohol consumption suppressing activity”.
As to `O=c1c(-c2ccc(O)cc2)coc2c([C@@H]3O[C@H](CO)[C@@H](O)[C@H](O)[C@H]3O)c(O)ccc12` [puerarin], in data set [5], the ALDH inhibition result is “not an ALDH inhibitor”. Besides, the “alcohol consumption suppressing activity of herbal medicines derived from Pueraria lobata (fractionation studies)” value in data set [4] was “primarily responsible for the alcohol consumption suppressing activity”. Also, in data set [4] (in vivo), the “activity in suppressing alcohol intake relative to daidzin” value was “slightly less active than daidzin”.
